# Target: T1, Angiotensin-converting enzymes from porcine kidneys (EC 3.4.15.1) (Sus scrofa, UniProt F1RRW5)
# T1 construct: gene ACE; native enzyme from porcine kidney (Sigma), lyophilized
# T1 sequence (F1RRW5 34-1309): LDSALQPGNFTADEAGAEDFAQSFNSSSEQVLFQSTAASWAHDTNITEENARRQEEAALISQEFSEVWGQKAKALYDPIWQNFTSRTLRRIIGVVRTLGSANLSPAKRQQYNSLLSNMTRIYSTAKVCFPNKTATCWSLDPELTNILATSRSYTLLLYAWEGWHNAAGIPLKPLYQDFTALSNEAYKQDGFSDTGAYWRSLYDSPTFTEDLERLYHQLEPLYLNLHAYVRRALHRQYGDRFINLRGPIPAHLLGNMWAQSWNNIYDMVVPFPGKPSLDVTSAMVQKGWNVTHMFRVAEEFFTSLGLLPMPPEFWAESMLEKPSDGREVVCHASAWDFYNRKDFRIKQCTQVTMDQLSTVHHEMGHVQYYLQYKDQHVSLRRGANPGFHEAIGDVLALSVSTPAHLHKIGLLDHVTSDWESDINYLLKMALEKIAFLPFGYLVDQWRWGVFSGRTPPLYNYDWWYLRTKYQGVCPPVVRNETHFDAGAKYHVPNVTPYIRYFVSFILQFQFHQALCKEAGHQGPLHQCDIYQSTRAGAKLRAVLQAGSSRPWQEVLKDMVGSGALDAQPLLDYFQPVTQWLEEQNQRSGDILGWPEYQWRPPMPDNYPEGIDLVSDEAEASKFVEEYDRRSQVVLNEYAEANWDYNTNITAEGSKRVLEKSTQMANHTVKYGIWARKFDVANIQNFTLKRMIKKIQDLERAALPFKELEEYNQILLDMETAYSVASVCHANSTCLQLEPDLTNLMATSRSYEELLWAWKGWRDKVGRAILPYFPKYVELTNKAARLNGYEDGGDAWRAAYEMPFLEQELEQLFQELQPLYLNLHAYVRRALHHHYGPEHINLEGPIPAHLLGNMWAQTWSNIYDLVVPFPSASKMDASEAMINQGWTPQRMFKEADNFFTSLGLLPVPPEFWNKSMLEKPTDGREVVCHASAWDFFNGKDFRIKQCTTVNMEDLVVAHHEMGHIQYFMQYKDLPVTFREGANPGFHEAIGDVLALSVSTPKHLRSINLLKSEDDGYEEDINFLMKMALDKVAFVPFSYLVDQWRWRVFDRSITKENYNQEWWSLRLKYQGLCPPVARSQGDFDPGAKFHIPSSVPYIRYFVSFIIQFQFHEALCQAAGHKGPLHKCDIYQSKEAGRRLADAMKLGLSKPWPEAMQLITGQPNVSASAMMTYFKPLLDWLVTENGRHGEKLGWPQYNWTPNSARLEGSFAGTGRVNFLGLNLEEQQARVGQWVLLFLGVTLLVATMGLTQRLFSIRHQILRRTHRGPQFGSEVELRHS
# Assay: microplate fluorometric assay, OPA detection of His-Leu
# Type: biochemical
# Conditions: read-out: IC50 (μg mL^-1) (converted)
smiles,measurement,value
O=c1c(O)c(-c2ccc(O)c(O)c2)oc2cc(O)cc(O)c12 [quercetin],IC50,129 µM

# Reference: paper PMC3485629, “Bioactivity comparison of extracts from various parts of common and tartary buckwheats: evaluation of the antioxidant- and angiotensin-converting enzyme inhibitory activities” (Chemistry Central Journal, 2012)
